According to PubChem BioAssay (NCI):
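Cells were grown in 96-well plates and exposed to each compound for 48 hours at five concentrations; endpoints were interpolated linearly between bracketing concentrations, or set to the highest concentration if not reached. Here, GI50 denotes the concentration required for 50% inhibition of growth. The concentration for full growth arrest is given as TGI.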

Key:
Test in all cases: inhibition of tumour cell growth, NCI panel, 48 h
ACHN renal = test system: ACHN renal
LOX IMVI melanoma = test system: LOX IMVI melanoma
SF-295 CNS = test system: SF-295 CNS
SK-MEL-5 melanoma = test system: SK-MEL-5 melanoma
UO-31 renal = test system: UO-31 renal
786-0 renal = test system: 786-0 renal
A498 renal = test system: A498 renal
A549 NSCLC = test system: A549 NSCLC
BT-549 breast = test system: BT-549 breast
CAKI-1 renal = test system: CAKI-1 renal
CCRF-CEM leukemia = test system: CCRF-CEM leukemia
COLO 205 colon = test system: COLO 205 colon
DU-145 prostate = test system: DU-145 prostate
HCC-2998 colon = test system: HCC-2998 colon
HCT-116 colon = test system: HCT-116 colon
HCT-15 colon = test system: HCT-15 colon
HL-60(TB) leukemia = test system: HL-60(TB) leukemia
HOP-62 NSCLC = test system: HOP-62 NSCLC
HOP-92 NSCLC = test system: HOP-92 NSCLC
HS 578T breast = test system: HS 578T breast
HT29 colon = test system: HT29 colon
IGROV1 ovarian = test system: IGROV1 ovarian
K-562 leukemia = test system: K-562 leukemia
KM12 colon = test system: KM12 colon
M14 melanoma = test system: M14 melanoma
MALME-3M melanoma = test system: MALME-3M melanoma
MDA-MB-231 breast = test system: MDA-MB-231 breast
MDA-MB-435 = test system: MDA-MB-435
MOLT-4 leukemia = test system: MOLT-4 leukemia
NCI-H460 lung = test system: NCI-H460 lung
NCI-H522 lung = test system: NCI-H522 lung
NCI/ADR-RES ovarian = test system: NCI/ADR-RES ovarian
OVCAR-3 ovarian = test system: OVCAR-3 ovarian
OVCAR-4 ovarian = test system: OVCAR-4 ovarian
OVCAR-5 ovarian = test system: OVCAR-5 ovarian
PC-3 prostate = test system: PC-3 prostate
RPMI-8226 leukemia = test system: RPMI-8226 leukemia
RXF 393 renal = test system: RXF 393 renal
SF-268 CNS = test system: SF-268 CNS
SF-539 CNS = test system: SF-539 CNS
SK-MEL-2 melanoma = test system: SK-MEL-2 melanoma
SK-MEL-28 melanoma = test system: SK-MEL-28 melanoma
SK-OV-3 ovarian = test system: SK-OV-3 ovarian
SN12C renal = test system: SN12C renal
SNB-19 CNS = test system: SNB-19 CNS
SNB-75 CNS = test system: SNB-75 CNS
SW-620 colon = test system: SW-620 colon
TK-10 renal = test system: TK-10 renal
U251 CNS = test system: U251 CNS
UACC-257 melanoma = test system: UACC-257 melanoma
UACC-62 melanoma = test system: UACC-62 melanoma
EKVX NSCLC = test system: EKVX NSCLC
MCF7 breast = test system: MCF7 breast
NCI-H226 lung = test system: NCI-H226 lung
NCI-H23 lung = test system: NCI-H23 lung
OVCAR-8 ovarian = test system: OVCAR-8 ovarian
SR leukemia = test system: SR leukemia
T-47D breast = test system: T-47D breast

Compound `OCCNc1nc(NCCO)nc(Nc2ccc(C3=NN(c4cc(Cl)cc(Cl)c4)C(c4ccc(C(F)(F)F)cc4)C3)cc2)n1` (configuration not stated) has a GI50 (ACHN renal) of 1.37 µM, a TGI (ACHN renal) of 2.66 µM and a GI50 (LOX IMVI melanoma) of 1.56 µM. The TGI (LOX IMVI melanoma) was 2.97 µM, the GI50 (SF-295 CNS) was 1.36 µM and the TGI (SF-295 CNS) was 2.71 µM. For the same compound, the GI50 (SK-MEL-5 melanoma) was 1.72 µM, the TGI (SK-MEL-5 melanoma) was 3.11 µM and the GI50 (UO-31 renal) was 1.55 µM. For the same compound, the TGI (UO-31 renal) was 2.92 µM.

`CC[CH2][Pb]([CH2]CC)([CH2]CC)[O]C(=O)C(F)(F)F` gave a GI50 (786-0 renal) of 0.165 µM, a TGI (786-0 renal) of 0.376 µM and a GI50 (A498 renal) of 0.0579 µM. The TGI (A498 renal) was 0.245 µM, the GI50 (A549 NSCLC) was 0.172 µM and the TGI (A549 NSCLC) was 0.563 µM. For the same compound, the GI50 (ACHN renal) was 0.149 µM, the TGI (ACHN renal) was 0.458 µM and the GI50 (BT-549 breast) was 0.222 µM. It also gave a TGI (BT-549 breast) of 0.707 µM, a GI50 (CAKI-1 renal) of 0.16 µM and a TGI (CAKI-1 renal) of 0.501 µM. It also gave a GI50 (CCRF-CEM leukemia) of 0.0906 µM, a TGI (CCRF-CEM leukemia) of 0.775 µM and a GI50 (COLO 205 colon) of 0.164 µM. The TGI (COLO 205 colon) was 0.374 µM, the GI50 (DU-145 prostate) was 0.188 µM and the TGI (DU-145 prostate) was 0.516 µM. For the same compound, the GI50 (HCC-2998 colon) was 0.163 µM, the TGI (HCC-2998 colon) was 0.343 µM and the GI50 (HCT-116 colon) was 0.0798 µM. For the same compound, the TGI (HCT-116 colon) was 0.262 µM, the GI50 (HCT-15 colon) was 0.124 µM and the TGI (HCT-15 colon) was 0.587 µM. It also gave a GI50 (HL-60(TB) leukemia) of 0.0446 µM, a TGI (HL-60(TB) leukemia) of 0.247 µM and a GI50 (HOP-62 NSCLC) of 0.176 µM. For the same compound, the TGI (HOP-62 NSCLC) was 0.404 µM, the GI50 (HOP-92 NSCLC) was 0.0291 µM and the TGI (HOP-92 NSCLC) was 0.223 µM. For the same compound, the GI50 (HS 578T breast) was 0.0947 µM, the TGI (HS 578T breast) was 0.759 µM and the GI50 (HT29 colon) was 0.186 µM. The TGI (HT29 colon) was 0.47 µM, the GI50 (IGROV1 ovarian) was 0.177 µM and the TGI (IGROV1 ovarian) was 0.627 µM. For the same compound, the GI50 (K-562 leukemia) was 0.0918 µM, the TGI (K-562 leukemia) was 0.552 µM and the GI50 (KM12 colon) was 0.125 µM. The TGI (KM12 colon) was 0.33 µM, the GI50 (LOX IMVI melanoma) was 0.0891 µM and the TGI (LOX IMVI melanoma) was 0.255 µM. It also gave a GI50 (M14 melanoma) of 0.0911 µM, a TGI (M14 melanoma) of 0.33 µM and a GI50 (MALME-3M melanoma) of 0.0894 µM. For the same compound, the TGI (MALME-3M melanoma) was 0.348 µM, the GI50 (MDA-MB-231 breast) was 0.142 µM and the TGI (MDA-MB-231 breast) was 0.44 µM. The GI50 (MDA-MB-435) was 0.0379 µM, the TGI (MDA-MB-435) was 0.106 µM and the GI50 (MOLT-4 leukemia) was 0.183 µM. It also gave a TGI (MOLT-4 leukemia) of 0.627 µM, a GI50 (NCI-H460 lung) of 0.113 µM and a TGI (NCI-H460 lung) of 0.398 µM. The GI50 (NCI-H522 lung) was 0.181 µM, the TGI (NCI-H522 lung) was 0.348 µM and the GI50 (NCI/ADR-RES ovarian) was 0.298 µM. The TGI (NCI/ADR-RES ovarian) was 1.06 µM, the GI50 (OVCAR-3 ovarian) was 0.0885 µM and the TGI (OVCAR-3 ovarian) was 0.239 µM. It also gave a GI50 (OVCAR-4 ovarian) of 0.0385 µM, a TGI (OVCAR-4 ovarian) of 0.178 µM and a GI50 (OVCAR-5 ovarian) of 0.18 µM. For the same compound, the TGI (OVCAR-5 ovarian) was 0.636 µM, the GI50 (PC-3 prostate) was 0.122 µM and the TGI (PC-3 prostate) was 0.294 µM. It also gave a GI50 (RPMI-8226 leukemia) of 0.0627 µM, a TGI (RPMI-8226 leukemia) of 0.403 µM and a GI50 (RXF 393 renal) of 0.0724 µM. It also gave a TGI (RXF 393 renal) of 0.277 µM, a GI50 (SF-268 CNS) of 0.156 µM and a TGI (SF-268 CNS) of 0.43 µM. It also gave a GI50 (SF-295 CNS) of 0.182 µM, a TGI (SF-295 CNS) of 0.434 µM and a GI50 (SF-539 CNS) of 0.156 µM. For the same compound, the TGI (SF-539 CNS) was 0.424 µM, the GI50 (SK-MEL-2 melanoma) was 0.214 µM and the TGI (SK-MEL-2 melanoma) was 0.462 µM. The GI50 (SK-MEL-28 melanoma) was 0.124 µM, the TGI (SK-MEL-28 melanoma) was 0.452 µM and the GI50 (SK-MEL-5 melanoma) was 0.127 µM. For the same compound, the TGI (SK-MEL-5 melanoma) was 0.264 µM, the GI50 (SK-OV-3 ovarian) was 0.275 µM and the TGI (SK-OV-3 ovarian) was 1.09 µM. The GI50 (SN12C renal) was 0.195 µM, the TGI (SN12C renal) was 0.535 µM and the GI50 (SNB-19 CNS) was 0.206 µM. For the same compound, the TGI (SNB-19 CNS) was 0.81 µM, the GI50 (SNB-75 CNS) was 0.0679 µM and the TGI (SNB-75 CNS) was 0.377 µM. For the same compound, the GI50 (SW-620 colon) was 0.0786 µM, the TGI (SW-620 colon) was 0.253 µM and the GI50 (TK-10 renal) was 0.204 µM. It also gave a TGI (TK-10 renal) of 0.533 µM, a GI50 (U251 CNS) of 0.156 µM and a TGI (U251 CNS) of 0.348 µM. The GI50 (UACC-257 melanoma) was 0.154 µM, the TGI (UACC-257 melanoma) was 0.455 µM and the GI50 (UACC-62 melanoma) was 0.116 µM. It also gave a TGI (UACC-62 melanoma) of 0.3 µM, a GI50 (UO-31 renal) of 0.141 µM and a TGI (UO-31 renal) of 0.409 µM.

For `COc1ccc(-n2c(=O)c3[nH]cnc3n(-c3ccc(OC)cc3)c2=S)cc1`, the TGI (786-0 renal) was > 100 µM, the TGI (A498 renal) was > 100 µM and the TGI (A549 NSCLC) was > 100 µM. For the same compound, the TGI (ACHN renal) was > 100 µM, the TGI (BT-549 breast) was > 100 µM and the TGI (CAKI-1 renal) was > 100 µM. The TGI (CCRF-CEM leukemia) was > 100 µM, the TGI (COLO 205 colon) was > 100 µM and the TGI (DU-145 prostate) was > 100 µM. For the same compound, the TGI (EKVX NSCLC) was > 100 µM, the TGI (HCC-2998 colon) was > 100 µM and the TGI (HCT-116 colon) was > 100 µM. The TGI (HCT-15 colon) was > 100 µM, the TGI (HL-60(TB) leukemia) was > 100 µM and the TGI (HOP-62 NSCLC) was > 100 µM. For the same compound, the TGI (HOP-92 NSCLC) was > 100 µM, the TGI (HT29 colon) was > 100 µM and the TGI (IGROV1 ovarian) was > 100 µM. The TGI (K-562 leukemia) was > 100 µM, the TGI (KM12 colon) was > 100 µM and the TGI (LOX IMVI melanoma) was > 100 µM. The TGI (M14 melanoma) was > 100 µM, the TGI (MCF7 breast) was > 100 µM and the TGI (MDA-MB-231 breast) was > 100 µM. The TGI (MDA-MB-435) was > 100 µM, the TGI (MOLT-4 leukemia) was > 100 µM and the TGI (NCI-H226 lung) was > 100 µM. The TGI (NCI-H23 lung) was > 100 µM, the TGI (NCI-H460 lung) was > 100 µM and the TGI (NCI-H522 lung) was > 100 µM. The TGI (NCI/ADR-RES ovarian) was > 100 µM, the TGI (OVCAR-3 ovarian) was > 100 µM and the TGI (OVCAR-4 ovarian) was > 100 µM. For the same compound, the TGI (OVCAR-5 ovarian) was > 100 µM, the TGI (OVCAR-8 ovarian) was > 100 µM and the TGI (PC-3 prostate) was > 100 µM. The TGI (RPMI-8226 leukemia) was > 100 µM, the TGI (RXF 393 renal) was > 100 µM and the TGI (SF-268 CNS) was > 100 µM. The TGI (SF-295 CNS) was > 100 µM, the TGI (SF-539 CNS) was > 100 µM and the TGI (SK-MEL-2 melanoma) was > 100 µM. The TGI (SK-MEL-28 melanoma) was > 100 µM, the TGI (SK-MEL-5 melanoma) was > 100 µM and the TGI (SK-OV-3 ovarian) was > 100 µM. For the same compound, the TGI (SN12C renal) was > 100 µM, the TGI (SNB-75 CNS) was > 100 µM and the TGI (SR leukemia) was > 100 µM. The TGI (SW-620 colon) was > 100 µM, the TGI (T-47D breast) was > 100 µM and the TGI (TK-10 renal) was > 100 µM. The TGI (U251 CNS) was > 100 µM, the TGI (UACC-257 melanoma) was > 100 µM and the TGI (UACC-62 melanoma) was > 100 µM. For the same compound, the TGI (UO-31 renal) was > 100 µM.
